In ChEMBL document CHEMBL4665643 (Bioorg Med Chem Lett, 2019) one finds Ratio IC50, inhibition and Papp A→B data, which are given here for 3 compounds.

In series [1] the target is Focal adhesion kinase 1 (Homo sapiens) (UniProt Q05397). Nature of the series: Inhibition of recombinant human GST-tagged full length FAK expressed in baculovirus expression system using Tyr 07 as substrate at 0.1 uM incubated for 60 mins by Z'-Lyte assay relative to control.
The target of series [2] is Protein kinase C alpha type (Homo sapiens) (UniProt P17252). Nature of the series: Inhibition of recombinant human His-tagged full length PKCalpha expressed in Escherichia coli expression system using Ser/Thr 07 as substrate at 0.1 uM incubated for 60 mins by Z'-lyte assay relative to control.
The target of series [3] is Serine/threonine-protein kinase PAK 1 (Homo sapiens) (UniProt Q13153). As to the kind of experiment: Inhibition of recombinant human GST-tagged full length PAK1 expressed in baculovirus expression system using Ser/Thr 19 as substrate at 0.1 uM incubated for 60 mins by Z'-lyte assay relative to control.
The target in series [4] is Tyrosine-protein kinase SYK (Homo sapiens) (UniProt P43405). As to the kind of experiment: Inhibition of recombinant human N-terminalGST-tagged full length SYK expressed in baculovirus expression system using Tyr 02 as substrate at 0.1 uM incubated for 60 mins by Z'-Lyte assay relative to control.
For series [5], the target named is Glycogen synthase kinase-3 beta (Homo sapiens) (UniProt P49841). As to the kind of experiment: Inhibition of recombinant human N-terminal GST-tagged full length GSK3beta expressed in baculovirus expression system using Ser/Thr 09 as substrate at 0.1 uM incubated for 60 mins by Z'-Lyte assay relative to control.
The target in series [6] is Macrophage colony-stimulating factor 1 receptor (Homo sapiens) (UniProt P07333). Nature of the series: Inhibition of recombinant human His-tagged CSF1R (538 to 910 residues) expressed in baculovirus expression system using Tyr 01 as substrate at 0.1 uM incubated for 60 mins by Z'-Lyte assay relative to control.
Series [7] addresses Insulin receptor (Homo sapiens) (UniProt P06213). As to the kind of experiment: Inhibition of recombinant human GST-tagged InsR (1011 to 1382 residues) expressed in baculovirus expression system using Tyr 01 as substrate at 0.1 uM incubated for 60 mins by Z'-lyte assay relative to control.
The target of series [8] is Casein kinase I isoform epsilon (Homo sapiens) (UniProt P49674). As to the kind of experiment: Inhibition of recombinant human His-tagged full length CK1epsilon expressed in baculovirus expression system using Ser/Thr 11 as substrate at 0.1 uM incubated for 60 mins by Z'-Lyte assay relative to control.
In series [9] the target is Ribosomal protein S6 kinase alpha-5 (Homo sapiens) (UniProt O75582). Nature of the series: Inhibition of recombinant human GST-tagged full length MSK1 expressed in baculovirus expression system using Ser/Thr 01 as substrate at 0.1 uM incubated for 60 mins by Z'-lyte assay relative to control.
Series [10] addresses Serine/threonine-protein kinase mTOR (Homo sapiens) (UniProt P42345). Nature of the series: Inhibition of recombinant human GST-tagged mTOR (1360 to 2549 residues) expressed in Escherichia coli expression system using Ser/Thr 11 as substrate at 0.1 uM incubated for 60 mins by Z'-Lyte assay relative to control.
Series [11] has as its target Mitogen-activated protein kinase 14 (Homo sapiens) (UniProt Q16539). As to the kind of experiment: Inhibition of recombinant human GST-tagged full length p38 alpha expressed in Escherichia coli expression system using Ser/Thr 15 as substrate at 0.1 uM incubated for 60 mins by Z'-Lyte assay relative to control.
Series [12] deals with T1, cGMP-dependent protein kinase 1 (Homo sapiens) (UniProt Q13976).
T1 sequence (whole entry): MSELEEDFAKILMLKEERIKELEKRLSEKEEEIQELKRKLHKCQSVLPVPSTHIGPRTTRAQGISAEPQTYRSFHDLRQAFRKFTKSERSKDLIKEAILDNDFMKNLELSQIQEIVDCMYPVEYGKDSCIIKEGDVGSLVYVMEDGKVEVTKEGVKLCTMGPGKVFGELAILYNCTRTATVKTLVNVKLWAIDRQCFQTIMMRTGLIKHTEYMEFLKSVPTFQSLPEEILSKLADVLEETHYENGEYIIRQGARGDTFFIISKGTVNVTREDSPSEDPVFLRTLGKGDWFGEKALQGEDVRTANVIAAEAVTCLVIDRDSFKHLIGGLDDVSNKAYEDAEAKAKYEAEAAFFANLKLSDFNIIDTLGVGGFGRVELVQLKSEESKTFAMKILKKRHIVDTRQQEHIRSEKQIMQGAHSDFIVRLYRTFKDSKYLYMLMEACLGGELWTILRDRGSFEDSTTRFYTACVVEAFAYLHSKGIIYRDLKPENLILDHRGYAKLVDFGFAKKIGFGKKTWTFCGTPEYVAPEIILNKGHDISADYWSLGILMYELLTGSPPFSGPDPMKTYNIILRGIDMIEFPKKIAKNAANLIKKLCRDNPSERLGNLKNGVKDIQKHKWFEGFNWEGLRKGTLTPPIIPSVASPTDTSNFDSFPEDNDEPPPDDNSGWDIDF
Nature of the series: Inhibition of recombinant human GST-tagged full length PKG1 alpha expressed in baculovirus expression system using Ser/Thr 01 as substrate at 0.1 uM incubated for 60 mins by Z'-Lyte assay relative to control.

A short description of the next series: in vitro. As to conditions: dog, MDCK.

Sequence of Macrophage colony-stimulating factor 1 receptor (Homo sapiens) (P07333 whole entry, the tested form may be a part): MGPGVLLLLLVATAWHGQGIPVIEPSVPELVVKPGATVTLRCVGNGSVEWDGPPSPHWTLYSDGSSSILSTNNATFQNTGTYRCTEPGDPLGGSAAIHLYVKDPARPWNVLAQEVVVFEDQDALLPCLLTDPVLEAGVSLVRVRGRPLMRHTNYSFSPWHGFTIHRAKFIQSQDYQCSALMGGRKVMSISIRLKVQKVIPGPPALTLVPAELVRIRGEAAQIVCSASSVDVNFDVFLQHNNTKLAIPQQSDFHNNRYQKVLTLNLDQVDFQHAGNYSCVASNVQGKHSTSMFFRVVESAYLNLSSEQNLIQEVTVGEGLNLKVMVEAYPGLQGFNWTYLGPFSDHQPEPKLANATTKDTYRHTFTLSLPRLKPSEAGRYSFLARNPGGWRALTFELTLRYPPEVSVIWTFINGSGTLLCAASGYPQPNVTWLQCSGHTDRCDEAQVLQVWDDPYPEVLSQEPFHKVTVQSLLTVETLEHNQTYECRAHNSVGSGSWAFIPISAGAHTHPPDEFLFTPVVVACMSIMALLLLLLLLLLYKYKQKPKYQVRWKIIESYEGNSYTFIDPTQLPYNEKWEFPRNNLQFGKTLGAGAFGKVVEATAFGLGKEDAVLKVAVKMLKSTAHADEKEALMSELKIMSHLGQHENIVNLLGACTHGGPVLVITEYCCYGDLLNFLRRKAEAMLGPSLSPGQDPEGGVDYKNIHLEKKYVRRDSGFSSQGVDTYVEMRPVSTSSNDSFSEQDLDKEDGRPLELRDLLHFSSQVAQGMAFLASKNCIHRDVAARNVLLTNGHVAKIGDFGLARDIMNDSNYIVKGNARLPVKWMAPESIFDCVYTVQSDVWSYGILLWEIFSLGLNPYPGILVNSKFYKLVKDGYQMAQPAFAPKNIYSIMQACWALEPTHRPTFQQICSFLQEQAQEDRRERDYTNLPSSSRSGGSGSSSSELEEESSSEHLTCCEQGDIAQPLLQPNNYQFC
Sequence of Focal adhesion kinase 1 (Homo sapiens) (Q05397 2-1052 limits assumed): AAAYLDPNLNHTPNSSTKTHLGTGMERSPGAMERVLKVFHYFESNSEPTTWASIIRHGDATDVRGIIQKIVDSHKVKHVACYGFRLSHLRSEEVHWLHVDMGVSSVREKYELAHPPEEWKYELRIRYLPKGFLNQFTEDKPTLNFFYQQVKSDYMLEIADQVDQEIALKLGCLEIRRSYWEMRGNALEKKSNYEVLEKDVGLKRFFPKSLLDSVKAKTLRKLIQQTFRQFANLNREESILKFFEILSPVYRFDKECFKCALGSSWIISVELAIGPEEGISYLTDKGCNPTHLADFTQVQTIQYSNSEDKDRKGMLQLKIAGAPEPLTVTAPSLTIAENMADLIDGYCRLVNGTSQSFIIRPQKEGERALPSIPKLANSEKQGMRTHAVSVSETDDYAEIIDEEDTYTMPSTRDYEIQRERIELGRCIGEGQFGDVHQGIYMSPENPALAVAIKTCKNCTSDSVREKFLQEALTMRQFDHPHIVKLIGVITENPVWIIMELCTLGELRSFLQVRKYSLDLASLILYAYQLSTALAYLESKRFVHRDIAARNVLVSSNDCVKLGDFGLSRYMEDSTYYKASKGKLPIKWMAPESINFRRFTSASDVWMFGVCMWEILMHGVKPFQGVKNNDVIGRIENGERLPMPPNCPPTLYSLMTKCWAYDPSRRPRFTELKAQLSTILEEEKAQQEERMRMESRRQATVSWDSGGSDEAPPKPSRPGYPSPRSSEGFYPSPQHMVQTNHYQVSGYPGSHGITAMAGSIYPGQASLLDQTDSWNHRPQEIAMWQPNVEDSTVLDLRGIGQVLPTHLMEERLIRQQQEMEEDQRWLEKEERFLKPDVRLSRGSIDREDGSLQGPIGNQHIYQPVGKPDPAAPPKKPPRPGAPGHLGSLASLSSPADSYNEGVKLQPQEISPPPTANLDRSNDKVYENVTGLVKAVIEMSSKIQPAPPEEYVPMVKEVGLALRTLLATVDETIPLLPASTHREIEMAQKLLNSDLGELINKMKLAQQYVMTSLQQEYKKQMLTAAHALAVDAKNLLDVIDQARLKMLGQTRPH
Sequence of Serine/threonine-protein kinase PAK 1 (Homo sapiens) (Q13153 whole entry): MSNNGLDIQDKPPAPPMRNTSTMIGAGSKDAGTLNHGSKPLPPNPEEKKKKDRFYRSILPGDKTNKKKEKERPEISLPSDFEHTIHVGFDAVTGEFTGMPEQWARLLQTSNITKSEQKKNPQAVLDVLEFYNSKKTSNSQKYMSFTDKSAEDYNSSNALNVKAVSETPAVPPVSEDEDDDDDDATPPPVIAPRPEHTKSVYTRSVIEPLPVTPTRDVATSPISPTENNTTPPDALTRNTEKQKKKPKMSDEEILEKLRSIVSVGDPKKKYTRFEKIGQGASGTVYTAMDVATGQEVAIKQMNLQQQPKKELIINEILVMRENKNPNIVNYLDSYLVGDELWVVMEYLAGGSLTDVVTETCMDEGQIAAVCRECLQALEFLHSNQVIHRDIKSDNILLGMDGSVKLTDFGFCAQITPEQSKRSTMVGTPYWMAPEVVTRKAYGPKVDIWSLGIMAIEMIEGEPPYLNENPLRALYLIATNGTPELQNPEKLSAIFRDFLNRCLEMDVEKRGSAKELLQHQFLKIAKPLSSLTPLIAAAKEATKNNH
Sequence of Mitogen-activated protein kinase 14 (Homo sapiens) (Q16539 whole entry): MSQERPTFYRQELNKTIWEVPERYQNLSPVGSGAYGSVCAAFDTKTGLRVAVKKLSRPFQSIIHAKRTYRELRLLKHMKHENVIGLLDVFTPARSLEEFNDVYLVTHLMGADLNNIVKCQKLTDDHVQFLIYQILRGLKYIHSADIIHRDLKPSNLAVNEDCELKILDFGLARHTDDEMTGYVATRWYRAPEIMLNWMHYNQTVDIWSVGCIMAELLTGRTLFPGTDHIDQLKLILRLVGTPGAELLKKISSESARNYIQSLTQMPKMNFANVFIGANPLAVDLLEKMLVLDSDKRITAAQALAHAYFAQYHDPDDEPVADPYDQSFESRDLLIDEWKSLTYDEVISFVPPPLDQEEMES
Sequence of Glycogen synthase kinase-3 beta (Homo sapiens) (P49841 whole entry, looked up, the tested form may be a part): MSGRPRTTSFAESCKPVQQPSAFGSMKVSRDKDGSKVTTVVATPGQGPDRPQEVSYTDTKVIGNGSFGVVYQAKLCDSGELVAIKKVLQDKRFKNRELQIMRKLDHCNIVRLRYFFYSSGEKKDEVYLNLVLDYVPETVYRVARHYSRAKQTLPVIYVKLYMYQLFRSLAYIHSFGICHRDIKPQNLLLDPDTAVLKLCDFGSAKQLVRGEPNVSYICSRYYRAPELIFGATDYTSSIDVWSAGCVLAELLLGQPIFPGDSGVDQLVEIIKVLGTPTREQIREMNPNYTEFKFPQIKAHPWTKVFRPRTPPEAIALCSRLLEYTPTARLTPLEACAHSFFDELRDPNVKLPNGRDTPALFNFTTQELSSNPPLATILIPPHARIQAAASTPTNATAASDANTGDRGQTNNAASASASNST
Sequence of Ribosomal protein S6 kinase alpha-5 (Homo sapiens) (O75582 whole entry, looked up, the tested form may be a part): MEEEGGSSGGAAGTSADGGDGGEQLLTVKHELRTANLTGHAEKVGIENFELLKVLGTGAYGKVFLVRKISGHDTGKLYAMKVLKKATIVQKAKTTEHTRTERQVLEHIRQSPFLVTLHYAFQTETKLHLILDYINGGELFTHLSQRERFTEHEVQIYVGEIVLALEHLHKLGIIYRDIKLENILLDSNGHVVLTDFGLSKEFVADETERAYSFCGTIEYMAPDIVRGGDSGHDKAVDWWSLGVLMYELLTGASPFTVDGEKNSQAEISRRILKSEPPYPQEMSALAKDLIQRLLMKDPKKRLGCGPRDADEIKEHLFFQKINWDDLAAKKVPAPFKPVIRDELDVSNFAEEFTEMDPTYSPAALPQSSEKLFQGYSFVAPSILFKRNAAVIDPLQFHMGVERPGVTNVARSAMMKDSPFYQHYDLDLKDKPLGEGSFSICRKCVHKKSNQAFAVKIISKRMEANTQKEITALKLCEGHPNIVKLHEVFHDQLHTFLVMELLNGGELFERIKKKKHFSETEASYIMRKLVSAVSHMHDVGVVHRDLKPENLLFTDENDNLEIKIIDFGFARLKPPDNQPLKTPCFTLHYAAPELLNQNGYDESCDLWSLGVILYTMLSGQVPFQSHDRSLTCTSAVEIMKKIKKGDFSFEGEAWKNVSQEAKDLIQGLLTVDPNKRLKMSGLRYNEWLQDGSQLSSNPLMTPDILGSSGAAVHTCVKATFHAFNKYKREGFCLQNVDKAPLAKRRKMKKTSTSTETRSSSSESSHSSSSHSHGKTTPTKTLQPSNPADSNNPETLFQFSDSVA
Description for in vitro: Apparent permeability across apical to basolateral side in MDCK cells at 10 uM incubated upto 180 mins by LC/MS-MS analysis

Regarding `O=C(Nc1c[nH]nc1-c1cc(Cl)ccc1OC(F)F)c1cnn2cccnc12`, in the series filed under Homo sapiens, the Ratio IC50 came out at 15. The inhibition is 14% in series [1]; 12% in [2]; 12% in series [3]; 8% in series [4]; 7% in series [5]; 6% in [6]. Also, the inhibition in series [7] was 6%; in series [8], 5%; in series [9], 3%; in [10] it was 1%; in [11], -4%; in [12] it was 0%. The compound further had a Papp A→B at 3 h, 10 µM in “in vitro” of 14 ×10⁻⁶ cm/s.
`Cn1cc(NC(=O)c2cnn3cccnc23)c(-c2cc(Cl)ccc2OC(F)F)n1`: the Ratio IC50 in the series listed under Homo sapiens was 47. Further, the inhibition was 15% in series [1]; 11% in series [2]; 2% in [3]; 7% in series [4]; -3% in [5]; 29% in series [6]. Besides, the inhibition in [7] is 4%; in series [8], -1%; in [9], 5%; in series [10], -3%; in series [11] it was 7%; in series [12], 4%. This compound also registered a Papp A→B at 3 h, 10 µM in “in vitro” of 14 ×10⁻⁶ cm/s.
On to `O=C(Nc1c[nH]nc1-c1cc2ccccc2cc1OC(F)F)c1cnn2cccnc12`, for which the Ratio IC50 in the series filed under Homo sapiens came to 83. Further, the inhibition was 20% in series [1]; 1% in series [2]; -7% in series [3]; 6% in series [4]; 7% in series [5]; -3% in [6]. For the same compound, the inhibition was -8% in [7]; 6% in [8]; -2% in [9]; 5% in series [10]; 2% in [11]; 3% in [12]. This compound registered an apparent permeability from apical to basolateral (Papp A→B) at 3 h, 10 µM in the series “in vitro” of 13 ×10⁻⁶ cm/s.
